Data as given in article PMC8761492 (Life Science Alliance, 2022).
Starred links: 1 amine or outer side, 2 acyl side, 3 side chain; linkers in the order of their positions; H or OH if unused. Positions of bridges follow the written chain, without caps; N, C: chain ends. Non-standard residues stand in square brackets, D forms with d. Residues, ends and D or L forms follow the SMILES beside them. *: point of attachment. X1 = CC[C@H](C)[C@@H](N[*:1])[C@@H](O)CC(=O)O[C@H](C(=O)[C@H](C)C(=O)[*:2])C(C)C; NMeY = CN[C@@H](Cc1ccc(O)cc1)C(=O)O; dNMeL = CN[C@H](CC(C)C)C(=O)O; Pyruvoyl = CC(=O)C(=O)*

Tested on: COVID-19
Assay: APLICOV-PC: mortality, ventilation, ICU admission and oxygen therapy
Type: in vivo, human
Description: Secondary outcomes included change from baseline of viral load, as evaluated by quantitative PCR via central laboratory on nasopharyngeal exudate or sampled from the lower respiratory tract within 48 h before first administration of plitidepsin and on days 4, 7, 15, and 31, and the percentage of patients requiring oxygen therapy, noninvasive mechanical ventilation, invasive mechanical ventilation and/or intensive care unit admission, and the percentage of patients with a fatal outcome on days 7, 15, and 31.
Analysis for preliminary evidence of efficacy was performed on all patients who had efficacy assessments at baseline and at least one subsequent assessment during treatment.
In regards with subgroup analyses, safety and efficacy outcomes also were assessed by age-group (<65 versus ≥65 yr) and efficacy outcomes were assessed by disease severity at baseline. Safety outcomes were also assessed before and after the implementation of the protocol amendment.

[1] = Day 1 to Day 7, 1.5 mg (N = 14)
[2] = Day 1 to Day 7, 2.0 mg (N = 15)
[3] = Day 1 to Day 7, 2.5 mg (N = 15)
[4] = Day 1 to Day 31, 1.5 mg (N = 14)
[5] = Day 1 to Day 31, 2.0 mg (N = 15)
[6] = Day 1 to Day 31, 2.5 mg (N = 15)
[7] = Day 1 to Day 31, Total (N = 44)
[8] = Day 8 to Day 15, 1.5 mg (N = 14)
[9] = Day 8 to Day 15, 2.0 mg (N = 15)
[10] = Day 8 to Day 15, 2.5 mg (N = 15)
[11] = Day 8 to Day 15, Total (N = 44)
[12] = Day 16 to Day 31, 1.5 mg (N = 14)
[13] = Day 16 to Day 31, 2.0 mg (N = 15)
[14] = Day 16 to Day 31, 2.5 mg (N = 15)
[15] = Day 16 to Day 31, Total (N = 44)
[16] = day 1 to Day 7, Moderate (N=23)
[17] = day 1 to Day 15, Moderate (N=23)
[18] = day 1 to Day 31, Moderate (N=23)

CC[C@H](C)[C@H]1NC(=O)[C@@H](NC(=O)[C@@H](CC(C)C)N(C)C(=O)[C@@H]2CCCN2C(=O)C(C)=O)[C@@H](C)OC(=O)[C@H](Cc2ccc(OC)cc2)N(C)C(=O)[C@@H]2CCCN2C(=O)[C@H](CC(C)C)NC(=O)[C@@H](C)C(=O)[C@H](C(C)C)OC(=O)C[C@@H]1O [Plitidepsin] (Pyruvoyl-P[dNMeL]T[X1]LP[NMeY](Me); ester 3-C)
1 (7.1): Mortality from Day 1 to Day 31 (1.5 mg (N = 14)) | Patients requiring invasive mechanical ventilation and/or intensive care unit admission [8] | Patients requiring invasive mechanical ventilation and/or intensive care unit admission [12] | Patients requiring noninvasive mechanical ventilation [12]
5 (35.7): Patients requiring noninvasive mechanical ventilation [4]
4 (28.6): Patients requiring noninvasive mechanical ventilation [1] | Patients requiring oxygen therapy at (Day 15, 1.5 mg (N=14))
3 (21.4): Patients requiring noninvasive mechanical ventilation [8]
5 (11.4): Patients requiring invasive mechanical ventilation and/or intensive care unit admission (Day 1 to Day 7, Total (N = 44)) | Patients requiring noninvasive mechanical ventilation (Day 1 to Day 7, Total (N = 44)) | Patients requiring noninvasive mechanical ventilation [11]
35 (79.5): Patients requiring oxygen therapy at [7] | Patients requiring oxygen therapy at (Day 7, Total (N=44))
4.3%: Patients requiring non-invasive mechanical ventilation at [16] | Patients requiring oxygen therapy (high flow) at [16] | Patients requiring non-invasive mechanical ventilation at [17] | Patients requiring oxygen therapy (high flow) at [17] | Patients requiring non-invasive mechanical ventilation at [18] | Patients requiring oxygen therapy (high flow) at [18] | patients requiring nonmechanical invasive ventilation (moderate disease, one patient)
11 (73.3): Patients requiring oxygen therapy at [6] | Patients requiring oxygen therapy at (Day 7, 2.5 mg (N=15))
12 (80.0): Patients requiring oxygen therapy at [5] | Patients requiring oxygen therapy at (Day 7, 2.0 mg (N = 15))
78.3%: Patients requiring oxygen therapy (low flow) at [16] | Patients requiring oxygen therapy at [16] | Patients requiring oxygen therapy (low flow) at [17] | Patients requiring oxygen therapy at [17] | Patients requiring oxygen therapy (low flow) at [18] | Patients requiring oxygen therapy at [18]
100%: Patients requiring oxygen therapy (low flow) at (day 1 to Day 7, Severe (N=15)) | Patients requiring oxygen therapy at (day 1 to Day 7, Severe (N=15)) | Patients requiring oxygen therapy (low flow) at (day 1 to Day 15, Severe (N=15)) | Patients requiring oxygen therapy at (day 1 to Day 15, Severe (N=15)) | Patients requiring oxygen therapy (low flow) at (day 1 to Day 31, Severe (N=15)) | Patients requiring oxygen therapy at (day 1 to Day 31, Severe (N=15))
2 (14.3): Patients requiring invasive mechanical ventilation and/or intensive care unit admission [1] | Patients requiring invasive mechanical ventilation and/or intensive care unit admission [4]
46.7%: Patients requiring non-invasive mechanical ventilation at (day 1 to Day 31, Severe (N=15)) | patients requiring nonmechanical invasive ventilation (severe disease, seven patients)
26.7%: Patients requiring non-invasive mechanical ventilation at (day 1 to Day 7, Severe (N=15)) | Patients requiring oxygen therapy (high flow) at (day 1 to Day 7, Severe (N=15))
40%: Patients requiring ICU admission at (day 1 to Day 15, Severe (N=15)) | Patients requiring invasive mechanical ventilation and/or ICU admission at (day 1 to Day 15, Severe (N=15)) | Patients requiring non-invasive mechanical ventilation at (day 1 to Day 15, Severe (N=15)) | Patients requiring oxygen therapy (high flow) at (day 1 to Day 15, Severe (N=15)) | Patients requiring ICU admission at (day 1 to Day 31, Severe (N=15)) | Patients requiring invasive mechanical ventilation and/or ICU admission at (day 1 to Day 31, Severe (N=15)) | Patients requiring oxygen therapy (high flow) at (day 1 to Day 31, Severe (N=15)) | patients requiring intensive care support (severe disease at baseline, 6 of 15)
20%: Patients requiring invasive mechanical ventilation at (day 1 to Day 31, Severe (N=15))
2 (4.5): Mortality from Day 1 to Day 31 (Total (N = 44))
4 (26.7): Patients requiring oxygen therapy at (Day 15, 2.5 mg (N=15))
0: Patients requiring noninvasive mechanical ventilation [2] | Patients requiring noninvasive mechanical ventilation [9] | Patients requiring oxygen therapy at (Day 31, 1.5 mg (N=14))
3 (6.8): Patients requiring invasive mechanical ventilation and/or intensive care unit admission [11] | Patients requiring invasive mechanical ventilation and/or intensive care unit admission [15] | Patients requiring noninvasive mechanical ventilation [15] | Patients requiring oxygen therapy at (Day 31, Total (N=44))
12 (85.7): Patients requiring oxygen therapy at [4] | Patients requiring oxygen therapy at (Day 7, 1.5 mg (N=14))
13.3%: Patients requiring invasive mechanical ventilation at (day 1 to Day 15, Severe (N=15)) | Deaths at (day 1 to Day 31, Severe (N=15))
9 (20.5): Patients requiring oxygen therapy at (Day 15, Total (N=44))
3 (20.0): Patients requiring invasive mechanical ventilation and/or intensive care unit admission [6]
1 (6.7): Mortality from Day 1 to Day 31 (2.5 mg (N = 15)) | Patients requiring invasive mechanical ventilation and/or intensive care unit admission [2] | Patients requiring noninvasive mechanical ventilation [3] | Patients requiring invasive mechanical ventilation and/or intensive care unit admission [5] | Patients requiring noninvasive mechanical ventilation [5] | Patients requiring invasive mechanical ventilation and/or intensive care unit admission [9] | Patients requiring invasive mechanical ventilation and/or intensive care unit admission [10] | Patients requiring oxygen therapy at (Day 15, 2.0 mg (N = 15)) | Patients requiring invasive mechanical ventilation and/or intensive care unit admission [13] | Patients requiring noninvasive mechanical ventilation [13] | Patients requiring invasive mechanical ventilation and/or intensive care unit admission [14] | Patients requiring noninvasive mechanical ventilation [14] | Patients requiring oxygen therapy at (Day 31, 2.5 mg (N=15))
6 (13.6): Patients requiring invasive mechanical ventilation and/or intensive care unit admission [7]
2 (13.3): Patients requiring invasive mechanical ventilation and/or intensive care unit admission [3] | Patients requiring noninvasive mechanical ventilation [6] | Patients requiring noninvasive mechanical ventilation [10] | Patients requiring oxygen therapy at (Day 31, 2.0 mg (N = 15))
8 (18.2): Patients requiring noninvasive mechanical ventilation [7]
33.3%: Patients requiring oxygen therapy (low flow) at (day 1 to Day 7, Mild (N=6)) | Patients requiring oxygen therapy at (day 1 to Day 7, Mild (N=6)) | Patients requiring ICU admission at (day 1 to Day 7, Severe (N=15)) | Patients requiring invasive mechanical ventilation and/or ICU admission at (day 1 to Day 7, Severe (N=15)) | Patients requiring oxygen therapy (low flow) at (day 1 to Day 15, Mild (N=6)) | Patients requiring oxygen therapy at (day 1 to Day 15, Mild (N=6)) | Patients requiring oxygen therapy (low flow) at (day 1 to Day 31, Mild (N=6)) | Patients requiring oxygen therapy at (day 1 to Day 31, Mild (N=6))
13.6%: patients requiring intensive care support (six of 44 patients)
